# Data reported in patent US12257294B2, “Therapeutics for autoimmune disease: synthetic antigens” (DANMARKS TEKNISKE UNIVERSITET, priority 2018, dated 2025).
# Non-standard residues stand in square brackets, D forms with d. No end group written: not given here. Cit = NC(=O)NCCC[C@H](N)C(=O)O; {NH2} = amino modification
# What was measured:
# NZB/W F1 mice = test: SLE mice study, SLEDAI; format: in vivo; conditions: 2 weeks of treatment and 2 weeks after
# Protocol: […]1 in 1×PBS was administered by IV in the tail vain every 12 h over 2 weeks, at a conjugate dosage of 160 μg/kg animal weight for 10 nM concentration. 30 mice were tested; 80% were female; average age 20 week; average weight/median 20.2 g (18.4 g-23.1 g). […] (HQ) was used as control, PO, 2 mg/kg, every 24 h over 2 weeks.
# NZB/W mice = test: In vivo mice assay, disease activity index (DAI); conditions: control treatment, same regimen
# Protocol: For the further in vivo test, a well-described mice model was selected: NZB/W mice, these have been used as a model for autoimmune disease since the early 1960s. Mice of this hybrid cross develop an autoimmune disease resembling human SLE. Nine-week-old NZB/W mice were kindly provided by […] group, Statens Serum Institute, Denmark; they were grown and tested for the presence of anti-dsDNA antibodies as described in example 6. […] Two mice were used for each conjugate. Mice received IV conjugate/control administration (same amount each time), with 12 h intervals for 5 days, and afterwards giving the same dose with 3 day interval over 3 weeks. […] Administration regimen for same as for nanoconjugate complexes: IV in tail vein with 12 h interval for 5 days, and afterwards giving the same dose with 3 day interval. Blood samples were withdrawn at time points: 24 h, 48 h, 1 week, 4 weeks after the beginning of each treatment. Plasma was centrifuged using Qiagen blood storage tubes and stored at -20° C. prior to analyses. ELISA analysis was performed using manufacturer's protocols in sera dilution 1:100 to 1:500. […] At early time points 10 nM conjugate works better than 1 nM.
# [1] = system: ACPA in RA sera (vs healthy controls and SLE); test: ELISA screening of citrullinated peptide library; format: binding, human
# From the text: Citrullinated peptide antigens PEP1-PEP25 (SEQ ID No 9-33) (free amine and carboxy-termini) have been purchased from CALSO, Copenhagen, Denmark, and screened in ELISA of a cohort of 30 RA patients, 30 matched healthy controls and 30 patients with systemic lupus erythematosus. Overall, 16 peptide antigens […], from all the three groups, recognised RA sera.
# [2] = system: autoantibodies in plasma of RA patients, SLE and healthy controls; test: ELISA testing of PEP2 and PEP2-nanoconjugates; format: binding, human; conditions: 30 individuals
# Protocol: Prior to ELISA, total amount of protein in each sample was estimated by Bradford method using standard curve of BSA control at known concentration (BioRad). In a maxisorb 96 well plate controls (BSA standard samples at concentrations 2 mg/mL, 1 mg/mL, 0.5 mg/mL and 0.1 mg/mL) and plasma sample were mixed with a Bradford reagent following manufacturer's protocol (BioRad). Plasma samples were used in dilution 1:100. Resulting absorbances at 595 nm were measured on Magellan Tecan microplate reader. Total amount of protein was calculated using standard curve.
# ELISA: Maxisorb 96 well plates (NUNC Thermofisher) were coated with nanoparticle antigens/controls at concentration 8 μg/mL in 1×PBS overnight (room temperature; 100 μl/well). After washing with 1×PT (2×300 μl/well, PT: 50 μl Tween-20 in 1 L 1×PBS), the plates were blocked with 1×PTB (1 h, 37° C.; 100 μl/well, PTB: 20 g BSA, 50 μl Tween-20 in 1 L 1×PBS). Incubation with plasma at desired dilution was performed at room temperature for 1.5 h using diluent: 2 g BSA, 50 μl Tween-20 in 1 L 1×PBS (100 μl/well). This was followed by washing (2×300 μl 1×PBS) and incubation with HPR-labelled secondary antibody for 1.5 h at room temperature using same diluent and dilution of the secondary antibody provided by supplier (HPR-conjugated a-aIgG; Sigma). Subsequent washing (2×300 μl PT) and incubation with freshly prepared TMB-H2O2 solution (Sigma; 100 μl/well) was followed by adding a stop solution (1M H2SO4; 50 μl/well) and reading resulting absorbance values at 450 nm on Magellan Tecan microplate reader. Linear range for each antigen was determined via testing series of control dilutions (SLE and healthy controls in dilutions 1:50 to 1:2000). According to the results plasma dilutions 1:100-1:500 were within linear range of the assay for each antigen (R2>0.95).
# purified SLE-antibodies = test: ELISA selectivity of antigens D7 and D8 for purified SLE antibodies; format: binding; conditions: vs control samples comprising other antibodies
# Protocol: SLE antibodies from sera were captured by affinity chromatography using NHS-sepharose and modified antigens as specified in table 9. […] Sera was pre-treated with CaCl2)/dextran to remove lipoproteins prior to applying to column. Sera sample was added to column; incubated for 4 min; washed at 0.5 ml/min flow rate with 20 mM PBS, 5 column volumes; and finally SLE antibodies were eluted with 3 column volumes of 100 mM glycine-HCl, 10% dioxane pH 2.5-3.
# Standard ELISA was used to test the selectivity of D7 and D8. ELISA plates comprising antigens D7 and D8, respectively, were tested for their ability to specifically bind the purified SLE-antibodies compared to control samples comprising other antibodies.
# [3] = Scanning electron microscopy, nanoparticle size; format: physicochemical; conditions: SEM
# Protocol: Nanosight experiment: Nanosight measurement was done in Jang lab, DTU, using Nano sight equipment NTA Version: NTA 3.1 Build 3.1.46 with Script SOP Standard Measurement 03-47-19PM 20D. The cell of the equipment must be cleaned and unscrewed totally by ethanol and Millipore water. 500 μL diluted sample was injected three times for three run and the concentration of Nanoparticles was adjusted using water pH 6 if the concentration of samples doesn't fit the analysis. The size distribution data and the size with maximum number of particles were recorded, see FIG. 10.
# Scanning Electron Microscopy (SEM): The morphology of the Chitosan nanoparticles (NP) was investigated using a Quanta FEG 3D scanning electron microscope (SEM). Samples were attached on metal stubs with double-sided adhesive carbon tape and coated with 6 nm of gold for better conductivity using a sputter coater (Leica Coater ACE 200). The average NP diameter was calculated using image J analysis software (National Institutes of Health, MD, USA) measured at different NP for each image.
compound,measurement,setting,value
"Oc1ccc(O)cc1 [HQ, Hydroquinone]","SLEDAI (SLE disease activity index), course",NZB/W F1 mice,reduces SLEDAI faster; however the disease flares after day 17 in treatment
Gentamicin [reference compound],Effect on DAI,NZB/W mice,only a short term drop in DAI
HHP GIA EFP S(Cit)G KSY SYS KQF (HHPGIAEFPS[Cit]GKSYSYSKQF) [PEP2],Binding in RA samples (share of patients),[1]; 30 RA patients,57%
same,Binding in healthy controls (share),[1]; 30 matched healthy controls,0%
same,Binding in SLE (share of patients),[1]; 30 patients with systemic lupus erythematosus,7%
same,"Positive individuals, %: Disease control SLE",[2],(7) %
same,"Positive individuals, %: Healthy",[2],(0) %
same,"Positive individuals, %: Patients with RA",[2],(57) %
same,"Positive individuals, n: Disease control SLE",[2],2
same,"Positive individuals, n: Healthy",[2],0
same,"Positive individuals, n: Patients with RA",[2],17
"NH2-(TCCT)6:(AGGA)6 (TCCTTCCTTCCTTCCTTCCTTCCT; DNA, 5' {NH2}, backbone and methylation of C not given here; further chemistry not fully specified) [Conjugate D8, Pre-annealed amino-modified duplex antigen]",Selectivity for SLE antibodies,purified SLE-antibodies,selective for SLE antibodies
"NP1: Chitosan/Hyaluronic acid/PEG/PEP2 nanoconjugate, presumably covalent attachment of peptide via PEG to CS/HA (HHPGIAEFPS[Cit]GKSYSYSKQF; ends and bridges not checked; also: presumably covalently attached via PEG to chitosan/hyaluronic acid nanoconjugate)",Average nanoparticle size,[3],100-300 nm
same,"Positive individuals, %: Disease control SLE",[2],(7) %
same,"Positive individuals, %: Healthy",[2],(3) %
same,"Positive individuals, %: Patients with RA",[2],(57) %
same,"Positive individuals, n: Disease control SLE",[2],2
same,"Positive individuals, n: Healthy",[2],1
same,"Positive individuals, n: Patients with RA",[2],17
"NP2: Chitosan/Hyaluronic acid/PEG/PEP2 nanoconjugate, presumably non-covalent attachment of peptide to CS/HA (HHPGIAEFPS[Cit]GKSYSYSKQF; ends and bridges not checked; also: presumably non-covalently loaded in chitosan/hyaluronic acid/PEG nanoconjugate)",Average nanoparticle size,[3],520 nm
same,"Positive individuals, %: Disease control SLE",[2],(7) %
same,"Positive individuals, %: Healthy",[2],(7) %
same,"Positive individuals, %: Patients with RA",[2],(53) %
same,"Positive individuals, n: Disease control SLE",[2],2
same,"Positive individuals, n: Healthy",[2],2
same,"Positive individuals, n: Patients with RA",[2],16
